Data on 9 molecules can be found in patent US20210038661A1, “TREATMENT OF TUMORS BY A COMBINATION OF AN ONCOLYTIC ADENOVIRUS AND A CDK4/6 INHIBITOR” (KLINIKUM RECHTS DER ISAR DER TECHNISCHEN UNIVERSITÄT MÜNCHEN, priority 2018, published 2021).

Experiment [1] has as its system T24 cells. The experiment is described as follows: IC-80 value of PARPi in T24 cells. In kind it is cell-based. The note with it: Homo sapiens, T-24. On the procedure: 3000 T24 cells were seeded per well in 12-well plates and grown over-night in RPMI Medium containing 10% FCS at 37° C. Inhibitor-treatment of cells occurred 24 h past cell seeding and again 1 hour after infection by adding indicated concentration to the medium. Infection of cells took place 24 h past inhibitor-treatment in 250 μl Medium without serum. Fixation and SRB-staining took place at 1-5 days post infection (dpi: days post infection). 15 nM PARPi correspond to the IC-80 value in T24 cells.

Experiment [2] has as its system UMUC3 cells. The experiment is described as follows: IC-80 value of PARPi in UMUC3 cells. The format is cell-based. Particulars: Homo sapiens. On the procedure: Seeding of UMUC-3: 3000 cells were seeded per well in 12-well plates and grown over-night in DMEM Medium containing 10% FCS at 37° C. Inhibitor-treatment of cell occurred 24 h past seeding and again 1 hour after infection by adding indicated concentration to the medium. Infection of cells took place 24 h past inhibitor-treatment. Fixation and SRB-staining took place at 1-6 days post infection (dpi: days post infection). 160 nM PARPi correspond to the IC-80 value in UMUC3 cells.

Another experiment deals with dl703. Description: DNA-replication analysis of dl703 in UMUC cells treated with cell cycle inhibitors (fiber qPCR). In kind it is cell-based, Mastadenovirus, Type C, Serotype 5. The procedure: To investigate the differences in replication of d1703 (Mantwill et al. 2013, Journal of Translational Medicine, 11, 216) under different treatment conditions, DNA-replication analysis was performed. 100.000 UMUC cells were seeded in 6-well plates and grown in DMEM medium containing 10% FCS in 5% CO2 conditions at 37° C. 24 hours post seeding cells were treated for 24 hours with 10 μM Lee (Ribociclib), 1 μM CI-1040, 10 μM Nutlin-3a and 10 μM Roscovertine and again after infection adding an appropriate amount of inhibitors to the medium. Infection with 50 MOI dl703 (Mastadenovirus, Type C, Serotype 5 with a 3.2 kb sized deletion in E1 region) took place 24 hours post treatment. After 4 and 48 hours post infection DNA were isolated and qPCR was performed using specific primers for the viral fiber gene. Fiber fwd. 5′-[…]-3′; Fiber rev. 5′-[…]-3′.
(In general: Quantitative PCR measures a nucleic acid by following its amplification.)

The subject of a further experiment is UMUC cells. The experiment is described as follows: Western blot of Rb, phRB and E2F-1 in UMUC cells treated with cell cycle inhibitors. The format is cell-based, human. The note with it: 24 hours post-treatment; for Rb, phRB and E2F-1 expression: indicated concentrations. On the procedure:
Western Blot analysis of UMUC cells treated with indicated concentrations of CI-1040, Roscovitine, Nutlin-3a and LEE011 (Ribociclib). 1×10^6 cells were seeded in 10 cm dishes. 24 hours post-treatment proteins were isolated using 1% SDS buffer, to achieve the disruption of the nuclear membrane. All samples were drawn up several times into a syringe to disrupt the DNA and subsequently centrifuged at 30000 rpm at 4° C. for 30 minutes. The supernatant was transferred to a new reaction tube and directly used for further steps or stored at −80° C. To separate the proteins a sodium dodecyl sulfate polyacrylamide gel electrophoresis was performed. By means of electrophoresis for approximately two hours at 100V at 4° C., 40 μg of total proteins were loaded and probed against specific indicated antibodies.

Experiment [3] has as its system UMUC3 cells. Description: Cell cycle analysis (EdU/PI flow cytometry) of UMUC3 cells. The note with it: 48 hours; Roscovetine 10 μM, CI-1040 1 μM, Nutlin-3a 10 μM, LEE011 10 μM. In kind it is cell-based, human. The procedure: FIG. 10 is a bar diagram showing cell cycle distribution in UMUC3 cells, measured 48 hours post treatment, whereby the concentrations of the CDK4/6 inhibitors was as follows: Roscovetine: 10 μM, CI-1040: 1 μM, Nutlin-3a: 10 μM, and LEE011: 10 μM.
For cell cycle analysis cells were seeded in 6 well plates (2,5×10E4 c/well). 8 hours before infection with dl703, cells were treated with indicated concentration of cell cycle inhibitors. After infection with 10 MOI dl703 cells were again treated for 48 hours. Untreated cells and dl703 infected cells only, served as control. 48 h post infection cells were harvest by trypsinization and fixed with 80% ethanol while vortexing. To investigate the cell cycle status, fixed cells were centrifuged 5 min at RT and 300 g and ethanol was aspirated. Cells were resuspended and washed with 1%BSA-PBS (Bovine Serum Albumin) and again centrifuged. Cells were stained with EDU and cell cycle analysis were performed using the Click-iT™ Plus EdU Flow Cytometry Assay Kits, Catalog nos. C10632 from Thermo Fischer. In addition, after 3× times washing with 1% BSA/PBS cells were stained with PI (Propidium Iodine, 50 μg/ml). Measurement was directly performed after staining with a FACScalibur Flow Cytometry System. Data was analyzed with FlowJo software.
In general terms: Flow cytometry measures light scatter and fluorescence of single cells or particles in a stream.

Experiment [4] concerns T24 cells. The experiment is described as follows: Potency assay (SRB) of T24 cells, XVir-N-31, Palbociclib and JQ-1. In kind it is cell-based, human. The procedure:
5000 T24 cells were seeded in 12 well plates and grown in 1 ml RPMI-Medium containing 10% FCS. Next day cells were treated with 500 nM Palbociclib and 300 nM JQ-1. 24 hours post treatment cells were infected with indicated MOIs of XVir-N-31 in 200 μl RPMI-Medium containing no FCS. After 1 hour 800 μl RPMI-Medium containing 10% FCS were added into each well. In addition, 500 nM Palbociclib and 300 nM JQ-1 were added to the medium. SRB-Staining took place 5 days post infection. Mock treated cells were set 100% cell survival.

The test system of experiment [5] is SK-N-MC cells. The experiment is described as follows: Potency assay (SRB) of SK-N-MC cells, XVir-N-31, Abemaciclib and JQ1. In kind it is cell-based. Particulars: 500 nM JQ1 added to 200 nM Abemaciclib, XVir-N-31, 5 days post infection. The procedure:
FIG. 16 is a bar diagram showing the result of a potency assay of SK-N-MC cells 5 days after exposure to XVir-N-31 alone, with 200 nM abemaciclib, 500 nM JQ1 or a combination of 200 nM abemaciclib and 500 nM JQ1, as percentage cell survival, whereby the cells were either not infected or infected with an MOI of 5, 10 or 20.
100.000 SK-N-MC cells/well were seeded in 12-well plates and grown in RPMI Medium containing 10% FCS at 5% CO2 at 37° C. Cells were treated with 200 nM Abemaciclib+500 nM JQ1 24 hours before and again 1 hour post infection by adding appropriate amount to the medium. Infection of XVir-N-31 took place in 500 μl in RPMI Medium without serum. SRB-Staining took place 5 days post infection. Mock treated cells were set 100% cell survival.

Experiment [6] concerns SK-N-MC cells. Description: Cell cycle distribution (propidium iodine) of SK-N-MC cells. The format is cell-based. Particulars: 48 hours post treatment. The procedure:
48 hours post treatment cells were washed twice took place with PBS (containing RNase A,100 U/ml). Cells were trypsinized and centrifuged at 1500 rpm, 4° C. for 5 min. Cells are fixed by adding slowly 1 ml of ice-cold 80% Ethanol drop by drop to the pellet and incubated overnight. Staining was performed by adding 1 ml of staining solution (Propidium Iodine,50 μg/ml) to the cells and incubating 30-60 min at RT with gentle rocking. MK: MK-1775; LY: LY-2835219.

The subject of a further experiment is T24. The experiment is described as follows: IC50 concentration of PD-0332991 in bladder cancer cell line T24. In kind it is cell-based. Particulars: Homo sapiens, T-24. On the procedure: (§1) The class of CDK4/6 inhibitors as subject to Example 5 requires expression of RB. Therefore, three RB positive and two RB negative bladder cancer derived cell lines were used and the cells treated with the combination therapy. Cell lines were pretreated for 24 hours with an IC50 concentration of PD-0332991 (T24: 500 nM, RT112: 2000 nM, 253J: 100 nM) and infected with XVir-N-31(T24 M0150, 253J MOI 25, RT112 MOI450). Values are the average of at least 2 independent experiments. Error bars show the standard error. Four dpi, cell viability was measured using SRB assays (a, c). (b, d) Lysates of cells were prepared 3 dpi and a titer test was performed on Hek293 cells. Viral titer is shown as fold change relative to control

The subject of the next experiment is RT112. The experiment is described as follows: IC50 concentration of PD-0332991 in bladder cancer cell line RT112. Particulars: Homo sapiens, RT-112. In kind it is cell-based. On the procedure: as §1
The test system of another experiment is 253J. Description: IC50 concentration of PD-0332991 in bladder cancer cell line 253J. The note with it: Homo sapiens. The format is cell-based. On the procedure: as §1

For orientation: IC80 means the concentration at which the effect reaches the 80% level. What is called IC50 is the concentration that inhibits the measured activity by half.

Turning to `Cn1ncnc1[C@H]1c2n[nH]c(=O)c3cc(F)cc(c23)N[C@@H]1c1ccc(F)cc1` [BMN673], the IC80 with T24 cells [1] turned out to be 15 nM; with UMUC3 cells [2] it was 160 nM.
In the case of `O=C(NOCC1CC1)c1ccc(F)c(F)c1Nc1ccc(I)cc1Cl` [CI-1040], in the experiment on dl703 (1 μM, 50 MOI dl703), the “viral DNA replication of dl703” value is “much lower compared to Ribociclib treated cells”. Further, the “E2F-1 as well as Rb and phRb expression” value with UMUC cells (1 μM) is reported as “induced inhibition”. The cell cycle distribution entry in the experiment with UMUC3 cells [3] was “clear G1-arrest”.
On to `Cc1sc2c(c1C)C(c1ccc(Cl)cc1)=N[C@@H](CC(=O)OC(C)(C)C)c1nnc(C)n1-2` [JQ1, thieno-triazolo-1-4-diazepine], for which the “cell killing capacity of XVir-N-31” value with T24 cells [4] (300 nM JQ-1 with 500 nM Palbociclib, low MOIs, 5 days post infection) is recorded as “increased the cell killing capacity”. In the experiment on T24 cells [4] (mono-therapy with 300 nM JQ1, 10 and 20 MOI), the “cell killing of XVir-N-31” value is given as “did not increase cell killing”. The cell killing entry with SK-N-MC cells [5] was “did not increase cell killing”.
Regarding `CN(C)C(=O)c1cc2cnc(Nc3ccc(N4CCNCC4)cn3)nc2n1C1CCCC1` [LEE011, ribociclib], in the experiment with dl703 (10 μM, 50 MOI dl703, 48 hours post infection), the “increase of viral DNA replication of dl703” value is ~100 fold. In addition, the “E2F-1 as well as Rb and phRb expression” value in the experiment with UMUC cells (10 μM) is reported as “induced inhibition”. In the experiment with UMUC3 cells [3], the cell cycle distribution result is recorded as “clear G1-arrest”.
Take `CCN1CCN(Cc2ccc(Nc3ncc(F)c(-c4cc(F)c5nc(C)n(C(C)C)c5c4)n3)nc2)CC1` [LY-2835219, abemaciclib]: in the experiment on SK-N-MC cells [6], the cell cycle distribution result is given as “no effect”.
As to `C=CCn1c(=O)c2cnc(Nc3ccc(N4CCN(C)CC4)cc3)nc2n1-c1cccc(C(C)(C)O)n1` [MK-1775], in the experiment on SK-N-MC cells [6] (500 nM, alone), the cell cycle distribution entry is “increase of cells in G2/M”.
`COc1ccc(C2=N[C@@H](c3ccc(Cl)cc3)[C@@H](c3ccc(Cl)cc3)N2C(=O)N2CCNC(=O)C2)c(OC(C)C)c1` [Nutlin-3a]: in the experiment on UMUC cells, the “Rb, phRB and E2F-1 expression” value is recorded as “no pronounced effect”. For the same molecule, the cell cycle distribution entry in the experiment with UMUC3 cells [3] was “only little or no effect”.
Take `CC(=O)c1c(C)c2cnc(Nc3ccc(N4CCNCC4)cn3)nc2n(C2CCCC2)c1=O` [PD-0332991, palbociclib]: the IC50 came out at 500 nM in the experiment on T24, 2000 nM in the experiment with RT112 and 100 nM with 253J.
`CC[C@H](CO)Nc1nc(NCc2ccccc2)c2ncn(C(C)C)c2n1` [Roscovitine]: in the experiment with UMUC cells, the “Rb, phRB and E2F-1 expression” value was “no pronounced effect”. The cell cycle distribution entry in the experiment with UMUC3 cells [3] is “slight increase of G2/m arrested cells”.
